# Experimental data taken from patent publication US20210332005A1, “CH-ACIDIC M[…] FOR THE PREPARATION OF AQUEOUS POLYMER DISPERSIONS” (EVONIK OPERATIONS GMBH, priority 2018, published 2021).
# Assay: Solubility of the product in water (stirred with water, aqueous phase analysed by HPLC)
# Assay type: physicochemical
# Conditions: for content of the product in the aqueous phase (solubility in water): HPLC; for water-solubility, overall rating in words: summary statement
# Description: The solubility of the product in water was determined as follows:
# The product was stirred with water for three days at room temperature and the composition of the aqueous phase obtained in this way was determined using HPLC. The aqueous phase contained 6.7 wt % of the product.
# A further sample of the product was stirred with water for three hours at 80° C. and cooled back to room temperature. The composition of the aqueous phase obtained in this way was subsequently determined using HPLC. The aqueous phase contained more than 10 wt % of the product.
# The product was stirred with water for two days at room temperature and the composition of the aqueous phase obtained in this way was determined using HPLC. The aqueous phase contained 6.2 wt % of the product.
# A further sample of the product was stirred with water for one hour at 60° C. and cooled back to room temperature. The composition of the aqueous phase obtained in this way was subsequently determined using HPLC. The aqueous phase contained 8.1 wt % of the product.
# The product was stirred with water for three days at room temperature and the composition of the aqueous phase obtained in this way was determined using HPLC.
# A further sample of the product was stirred with water for three hours at 80° C. and cooled to room temperature. The composition of the aqueous phase obtained in this way was subsequently determined using HPLC.
# [1] = stirred with water for three days at room temperature
# [2] = stirred with water for three hours at 80° C. and cooled back to room temperature
Structure (SMILES),content of the product in the aqueous phase (solubility in water) [1],content of the product in the aqueous phase (solubility in water) [2],"water-solubility, overall rating in words",content of the product in the aqueous phase (solubility in water) (stirred with water for one hour at 60° C. and cooled back to room temperature) [wt %],content of the product in the aqueous phase (solubility in water) (stirred with water for two days at room temperature) [wt %]
"C=C(C)C(=O)NCCCCCCNC(=O)CC#N [Comparative Example 3, N-(2-cyanoethylamidohexyl)methacrylamide, reference compound]",virtually insoluble in water,virtually insoluble in water,very low water-solubility,,
"C=C(C)C(=O)NCCNC(=O)CC#N [Example 3, N-(2-cyanoethylamidoethyl)methacrylamide]",6.7 wt %,more than 10 wt %,high water-solubility,,
"C=C(C)C(=O)NCCCCNC(=O)CC#N [Example 5, N-(2-cyanoethylamidobutyl)methacrylamide]",,,high water-solubility,8.1,6.2
